The values below come from PubChem BioAssay (NCI).

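Cells were grown in 96-well plates and exposed to each compound for 48 hours at five concentrations; endpoints were interpolated linearly between bracketing concentrations, or set to the highest concentration if not reached. GI50 is the concentration that inhibits growth by half. TGI: total growth inhibition.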

Common to all, as to test: inhibition of tumour cell growth, NCI panel, 48 h
The subject of experiment [1] is M14 melanoma.
Experiment [2] relates to TK-10 renal.
Experiment [3] relates to SK-MEL-28 melanoma.
Experiment [4] deals with IGROV1 ovarian.
Experiment [5] deals with NCI-H460 lung.
Experiment [6] has as its system RXF 393 renal.
Experiment [7] deals with SNB-19 CNS.
Experiment [8] deals with UACC-257 melanoma.
The test system of experiment [9] is OVCAR-3 ovarian.
Experiment [10] concerns DU-145 prostate.

For `O=c1ncccn1C1OC(CO)C(O)C1O` (configuration not stated), the TGI in experiment [1], in experiment [2], in experiment [3], in [4], in experiment [5] and in [6] was more than 100 µM in each case. Further, the TGI in [7] is more than 100 µM.
Consider `c1ccc2c(c1)oc1ccc3nsnc3c12`, for which the TGI in experiment [1] was more than 100 µM; in experiment [8], more than 100 µM; in [9], more than 100 µM; in experiment [2], more than 10 µM; in experiment [3] it was more than 100 µM; in experiment [4], more than 100 µM. The TGI is more than 10 µM in experiment [5], more than 100 µM in [6] and more than 100 µM in experiment [7].
With `O=C(O)CCNCCCCNCCC(=O)O`, the TGI in experiment [1], in experiment [9], in [2], in experiment [3], in experiment [4] and in [5] was more than 100 µM each time. Further, the TGI in experiment [6] and in experiment [7] was more than 100 µM throughout.
In the case of `c1ccc2c(c1)SCCCSCCSCCCS2`, the TGI in [10], in experiment [1], in experiment [8], in experiment [9], in experiment [2] and in experiment [3] was more than 100 µM each time. For the same compound, the TGI in experiment [4], in [5] and in experiment [7] was more than 100 µM in each case.
`C=CCC1=C(C)C[C@@H]2CCC(=O)C=C12`: the TGI in experiment [1], in [8], in experiment [9], in experiment [2], in experiment [3] and in experiment [4] was more than 100 µM each time. In addition, the TGI in experiment [5], in [6] and in experiment [7] was more than 100 µM throughout.
On to `CC(C)CCCC(C)[C@H]1CCC2[C@@H]3CCC4Nc5c(cnn5-c5ccccc5)C[C@]4(C)C3CC[C@@]21C` (some centres not stated), for which the TGI in experiment [1], in experiment [8], in [9], in experiment [2], in experiment [4] and in experiment [5] was more than 100 µM throughout. Also, the TGI in experiment [6] turned out to be 8.8 µM; in experiment [7] it was 63.1 µM.
Regarding `C=CCO/N=C(\OC(=O)c1ccc([N+](=O)[O-])cc1)c1ccccc1`, the TGI in experiment [1], in [9], in [2], in [3], in experiment [4] and in experiment [5] was more than 100 µM each time. The TGI in experiment [7] is more than 100 µM.
As to `C[Si](C)(C)/C=C\CCO`, the TGI in experiment [1], in [8], in experiment [9], in experiment [2], in experiment [3] and in experiment [4] was more than 100 µM in each case. Besides, the TGI in experiment [5], in experiment [6] and in [7] was more than 100 µM each time.
Take `O=S(=O)(NCn1ccc2ccccc21)c1ccccc1`: the TGI in [1], in [8], in experiment [9], in experiment [2], in experiment [3] and in [4] was more than 100 µM throughout. The TGI in experiment [5] is more than 100 µM; in [6], more than 100 µM; in experiment [7], more than 31.6 µM.
On to `CC(C)(C)OC(=O)NCCCn1c2c(c3ccccc3c1=O)C(=O)c1ccccc1-2`, for which the GI50 in experiment [10] is 74.8 µM; in [1] it was more than 100 µM; in [8], 75.4 µM; in experiment [9], 8.73 µM; in experiment [2], 22.3 µM; in [4] it was more than 100 µM. The values for the GI50 in [5] and in experiment [7] were 33.9 µM and 12.1 µM, respectively. For the same compound, the TGI was more than 100 µM in [10]; more than 100 µM in [1]; more than 100 µM in experiment [8]; 26.3 µM in experiment [9]; 63 µM in experiment [2]; more than 100 µM in experiment [4]. For the same compound, the figures for the TGI in experiment [5] and in [7] were more than 100 µM and 29.6 µM, respectively.
Regarding `Cc1ccc(S(=O)(=O)c2ccccc2[N+](=O)[O-])cc1`, the TGI in experiment [1], in experiment [8], in experiment [9], in experiment [2], in [3] and in [4] was more than 100 µM each time. The TGI in [5] and in experiment [6] was more than 100 µM in each case.
With `Cc1cc(N(CCC#N)CCC#N)ccc1N=Nc1ccc(Br)cc1`, the TGI in experiment [1] is more than 66 µM; in experiment [8] it was more than 100 µM; in experiment [9] it was more than 87.2 µM; in [2], 39.8 µM; in experiment [3] it was more than 100 µM; in experiment [4], more than 57.3 µM. The results for the TGI in experiment [5], in experiment [6] and in [7] were more than 100 µM, 25.8 µM and more than 57.6 µM, respectively.
Take `COC(=O)CC(NC(=O)OCc1ccccc1)C(C(=O)OCc1ccccc1)C(C)(OC)OC` (configuration not stated): the TGI in experiment [1] was more than 100 µM; in experiment [8], 85.6 µM; in experiment [9] it was more than 100 µM; in [2], more than 100 µM; in [3] it was more than 100 µM; in experiment [4] it was more than 100 µM. In addition, the TGI in experiment [5] is 80.2 µM; in [6], 96.9 µM; in experiment [7], more than 100 µM.
Consider `CC(=O)[O-].[Mn+3].[O-]c1ccccc1C=NCCNCCN=Cc1ccccc1[O-]`, for which the GI50 in experiment [1], in experiment [8], in experiment [9], in [2], in [3] and in experiment [4] was more than 100 µM in each case. Further, the GI50 in [5], in [6] and in [7] was more than 100 µM each time. For the same compound, the TGI in experiment [1], in experiment [8], in experiment [9], in [2], in [3] and in [4] was more than 100 µM each time. The TGI in experiment [5], in experiment [6] and in [7] was more than 100 µM throughout.
With `COC(=O)c1c2c(cc3c1CC1(Cc4cc5c(c(C(C)=O)c4C1)CCC5)C3)CCC2` (configuration not stated), the TGI in [1], in experiment [8], in [9], in experiment [2], in [3] and in experiment [4] was more than 100 µM in each case. The TGI in experiment [5] is more than 100 µM; in [6], 95.7 µM; in experiment [7], more than 100 µM.
`COc1ccc(CCc2cc(OC)cc(OC)c2)cc1`: the TGI in experiment [1] is more than 100 µM; in experiment [8], more than 100 µM; in [9] it was more than 65.9 µM; in experiment [2], more than 100 µM; in [3] it was more than 100 µM; in experiment [4] it was more than 100 µM. In addition, the TGI in experiment [5] is more than 100 µM; in experiment [6], 63.8 µM; in experiment [7] it was more than 100 µM.
As for `COc1ccc(C(=O)C(CC2C(=O)NC(=O)NC2=O)c2ccc(OC)cc2)cc1` (configuration not stated), the TGI in experiment [1], in experiment [8], in [9], in experiment [2], in experiment [3] and in experiment [4] was more than 100 µM throughout. Moreover, the TGI in experiment [5], in experiment [6] and in experiment [7] was more than 100 µM throughout.
As to `N.N.N.N.N.O=[N+]([O-])[O-].[Co+3].[O-][Cl+3]([O-])([O-])[O-]`, the GI50 in [1], in experiment [8], in experiment [9], in experiment [2], in [3] and in experiment [4] was more than 100 µM in each case. Also, the GI50 in experiment [5] and in experiment [7] was more than 100 µM each time. Further, the TGI in experiment [1], in [8], in [9], in experiment [2], in experiment [3] and in [4] was more than 100 µM in each case. The TGI in experiment [5] and in experiment [7] was more than 100 µM throughout.
In the case of `C[C@]12CC[C@H](O)CC1=CC[C@@H]1C2CC[C@]2(C)Nc3c(cnn3-c3ccccc3)CC12` (some centres not stated), the TGI in experiment [1] was found to be 30.9 µM; in experiment [8], 15 µM; in [9], 40.2 µM; in [2], 83.2 µM; in experiment [3], 18.7 µM; in [4], 33.3 µM. Also, the TGI in experiment [5] stood at 10.8 µM; in experiment [6] it was 4.01 µM.
`CCOC(=O)N1CCc2cc(OC)c(OC)cc2/C1=C\c1ccc(OC)c(OC)c1`: the TGI was more than 10 µM in [1]; 53.8 µM in experiment [8]; 82.3 µM in experiment [9]; 73.9 µM in experiment [2]; more than 100 µM in [3]; more than 100 µM in experiment [4]. For the same compound, the TGI in experiment [6] is 54.2 µM; in [7], more than 100 µM.
On to `CCCC(=O)N[C@H]1C2C3CC4C5CC(C42)C1(C)C53` (some centres not stated), for which the TGI in experiment [1], in experiment [8], in experiment [9], in experiment [2], in experiment [3] and in experiment [4] was more than 100 µM each time. The TGI in experiment [5], in experiment [6] and in experiment [7] was more than 100 µM in each case.
With `Cc1cccc(C)c1NC(=O)CCc1nc(=S)[nH][nH]1`, the TGI in experiment [1], in experiment [2], in [3], in experiment [4], in experiment [5] and in experiment [6] was more than 100 µM each time. Moreover, the TGI in [7] was more than 100 µM.
As for `CC(=O)O[C@]1(C)OC(=O)[C@@H](CC(C)C)N1[N+](=O)[O-]`, the TGI in experiment [1], in experiment [8], in experiment [9], in experiment [2], in [3] and in [4] was more than 100 µM each time. Further, the TGI in [5], in experiment [6] and in experiment [7] was more than 100 µM each time.
Take `CC1CCSC(N(C(=O)N(C)c2ccccc2)c2ccccc2)=N1` (configuration not stated): the TGI in experiment [1], in [8], in experiment [9], in [2], in experiment [3] and in experiment [4] was more than 100 µM each time. The TGI in experiment [5], in experiment [6] and in experiment [7] was more than 100 µM throughout.
In the case of `Cc1c(NC(=S)NC(=O)c2ccc([N+](=O)[O-])cc2)c(=O)n(-c2ccccc2)n1C`, the TGI in [1], in experiment [8], in experiment [9], in [2], in experiment [3] and in experiment [4] was more than 100 µM in each case. The TGI in experiment [5], in [6] and in experiment [7] was more than 100 µM throughout.
On to `CC(C)OP(=O)(OC(C)C)/C(N)=N/Nc1ccc([N+](=O)[O-])cc1`, for which the TGI in experiment [1], in [8], in experiment [9], in experiment [2], in experiment [3] and in [5] was more than 100 µM each time. The compound further came in with a TGI in experiment [7] of more than 100 µM.
In the case of `CCOC(=O)CCn1ncc(Cl)c(Cl)c1=O`, the TGI in experiment [1] worked out at 14.5 µM; in [8], 26.5 µM; in [9], 10.8 µM; in experiment [2] it was 34.5 µM; in experiment [3] it was 6.58 µM; in experiment [4] it was 26 µM. Besides, the results for the TGI in [5], in experiment [6] and in [7] were 30.3 µM, 29 µM and 26.7 µM, respectively.
For the compound `C#Cc1c(C)c(/C=C/C(C)=C/C(=O)OC)n(C)c1C`, the TGI in [1], in [8], in experiment [9], in [2], in [4] and in [7] was more than 100 µM throughout.
As for `CN1CCc2c1nc(-c1ccc(Cl)cc1)c1c2N(C)CC1`, the TGI in experiment [1] is 20.4 µM; in [8] it was 32.7 µM; in experiment [9] it was 22.8 µM; in [2], 92.6 µM; in experiment [4], more than 100 µM; in experiment [5], 40.4 µM. Moreover, the TGI in experiment [6] was 43.9 µM; in [7], more than 100 µM.
